Laboratory results published in patent publication US4436934A, “Bicyclic prostaglandin analogs and method of synthesis” (Iowa State University Research Foundation, Inc., priority 1981, dated 1984).

What was measured:
[1] = tested on: platelet thrombus (laser micro-injury of small blood vessel); test: biolaser model of experimental thrombosis (rabbit ear chamber); type: in vivo; settings: combined with anagrelide at a lower than threshold level
From the text: These compounds were studied in vivo in an animal model for experimental thrombosis. The use of this model is described in detail in the reprint, Use of the Biolaser in the Evaluation of Anti-Thrombotic Agents, J. S. Fleming et al. "Platelets and Thrombosis", eds. S. Sherry and A. Scriabrine, University Park Press, 1974, Baltimore, which is incorporated herein by reference.
In brief, a micro-injury is created by a laser beam focused through a microscope onto the endothelium surface of a small blood vessel in a surgically implanted ear chamber of a rabbit. The injury induces the rapid formation of a platelet thrombis which can be measured. […] Prostacyclin is active in the biolaser model when infused intraveneously. The results of these tests preliminarily indicate that there is a super additive interaction between anagrelide and the compounds of this invention. […] To date, no other compounds have undergone significant in vivo analysis in the rabbit ear test.

[2] = tested on: platelet thrombus (laser micro-injury of small blood vessel); settings: cited from earlier work; for inhibition of thrombosis (in words): general statement on potent inhibitors of platelet aggregation

Structure (SMILES)	reduction in thrombosis, combination with anagrelide (in words) [1]	inhibition of thrombosis (in words) [2]	activity in the biolaser model (in words) ([2]; infused intravenously)
CCCCCC(O)C#CC1C2CCC(C2)C1C/C=C/CCCC(=O)OC (stereo not shown) [Example 2]	substantial reduction in thrombosis		
CCCCC[C@H](O)/C=C/[C@@H]1[C@H]2C/C(=C/CCCC(=O)O)O[C@H]2C[C@H]1O [prostacyclin]		significant inhibition of this kind of thrombosis	active
O=C1CN2Cc3c(ccc(Cl)c3Cl)N=C2N1 [anagrelide]		significant inhibition of this kind of thrombosis	
